Data from US8106055B2, “Substituted amide compounds” (Gruenenthal GmbH, priority 2007, dated 2012).

Assays:
human μ opiate receptor = molecular target: T1, human μ opiate receptor (Homo sapiens, UniProt P35372); experiment: Affinity for the human μ opiate receptor ([3H]-naloxone displacement, CHO-K1 receptor membrane preparation, SPA); format: binding; conditions: 1.5 h, Table 3, to be read in the same way as Table 1; test concentration 1 μM; read-out: μ
T1 construct: purchased PerkinElmer Life Sciences, Zaventem, Belgium RB-HOM; host or cells: CHO-K1 cells (membrane preparation)
In short: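 Scintillation proximity binding on human μ receptor membranes from CHO-K1 cells used 1 nmol/l [3H]-naloxone over 90 min at room temperature in 50 mmol/l Tris-HCl, 0.06% BSA. Percent inhibition was recorded at 1 μM.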

[1] = molecular target: T2, bradykinin 1 receptor (B1R) of the rat (Rattus norvegicus, UniProt P97583); experiment: Functional investigation on the rat bradykinin 1 receptor (B1R), Ca2+ FLIPR assay in CHO K1 rB1R cells; format: cell-based; conditions: CHO-K1, B1R antagonism rat; test substance 10 μM; Ca2+ FLIPR, CHO K1 rB1R cells; read-out: B1R Ant. r [10 μM] % Inhibition
T2 construct: expressed in transfected cells; host or cells: CHO K1 cells
T2 sequence (P97583 1-337): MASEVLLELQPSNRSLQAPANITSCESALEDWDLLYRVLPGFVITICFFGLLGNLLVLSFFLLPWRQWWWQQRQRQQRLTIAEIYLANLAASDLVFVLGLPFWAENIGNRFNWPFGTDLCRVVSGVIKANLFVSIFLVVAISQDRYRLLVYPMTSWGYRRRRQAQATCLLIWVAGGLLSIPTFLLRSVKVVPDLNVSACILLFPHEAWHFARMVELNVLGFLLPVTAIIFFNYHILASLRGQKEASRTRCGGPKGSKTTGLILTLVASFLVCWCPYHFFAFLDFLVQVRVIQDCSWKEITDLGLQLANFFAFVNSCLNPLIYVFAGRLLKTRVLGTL
In short: (§1)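 Cells were dye-loaded with Fluo-4 plus probenecid, then test substances added and Ca2+ influx compared with agonist control for % activation. After 10-20 min, EC80 agonist (Lys-Des-Arg9-bradykinin human; Des-Arg9-bradykinin rat) was applied; suppression gave % inhibition and IC50 values.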

[2] = molecular target: T3, human bradykinin 1 receptor (B1R) (Homo sapiens, UniProt P46663); experiment: Functional investigation on the human bradykinin 1 receptor (B1R), Ca2+ FLIPR assay in CHO K1 hB1R cells; format: cell-based; conditions: CHO-K1, B1R antagonism human; test substance 10 μM; Ca2+ FLIPR, CHO K1 hB1R cells; read-out: B1R Ant. h [10 μM] % Inhibition
T3 construct: expressed in transfected cells; host or cells: CHO K1 cells
T3 sequence (P46663 1-353): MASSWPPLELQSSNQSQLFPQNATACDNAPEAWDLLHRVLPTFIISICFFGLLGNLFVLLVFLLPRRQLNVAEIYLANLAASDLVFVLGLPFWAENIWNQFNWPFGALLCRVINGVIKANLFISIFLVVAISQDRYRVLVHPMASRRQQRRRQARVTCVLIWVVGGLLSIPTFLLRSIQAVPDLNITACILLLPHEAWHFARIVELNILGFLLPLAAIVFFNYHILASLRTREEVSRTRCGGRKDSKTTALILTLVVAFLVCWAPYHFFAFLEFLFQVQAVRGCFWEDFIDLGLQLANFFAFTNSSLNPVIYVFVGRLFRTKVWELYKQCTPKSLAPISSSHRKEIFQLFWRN
In short: as §1

T1 sequence (P35372 whole entry): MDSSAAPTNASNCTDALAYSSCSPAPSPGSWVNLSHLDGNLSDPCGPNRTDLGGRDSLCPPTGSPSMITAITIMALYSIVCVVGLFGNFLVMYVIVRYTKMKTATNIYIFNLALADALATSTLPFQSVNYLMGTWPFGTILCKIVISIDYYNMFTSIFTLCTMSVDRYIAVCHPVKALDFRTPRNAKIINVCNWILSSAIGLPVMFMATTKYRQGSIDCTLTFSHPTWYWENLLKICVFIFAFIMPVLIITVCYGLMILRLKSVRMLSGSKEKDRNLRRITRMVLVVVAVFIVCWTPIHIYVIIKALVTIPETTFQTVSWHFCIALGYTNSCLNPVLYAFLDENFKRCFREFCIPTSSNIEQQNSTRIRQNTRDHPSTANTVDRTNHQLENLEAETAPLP

Q: Which results are given for `COc1cc(C)c(S(=O)(=O)N(C)CCOCC(=O)NCC2CCC(C(c3ccccc3)N3CCCC3)CC2)c(C)c1` (stereo not drawn) [Example 642, 2-(2-(4-methoxy-N,2,6-trimethylphenylsulfonamido)ethoxy)-N-((4-(phenyl(pyrrolidin-1-yl)methyl)cyclohexyl)methyl)acetamide]?
A: inhibition at 1 µM (human μ opiate receptor): 54%; inhibition at 10 µM [1]: 105%; inhibition at 10 µM [2]: 105%

Q: `CN(CCOCC(=O)NCC1CCC(C(c2ccccc2)N2CCCC2)CC1)S(=O)(=O)c1c(Cl)cccc1Cl` (stereo not drawn) [Example 643, 2-(2-(2,6-dichloro-N-methylphenylsulfonamido)ethoxy)-N-((4-(phenyl(pyrrolidin-1-yl)methyl)cyclohexyl)methyl)acetamide] was tested. Which inhibition at 1 µM (human μ opiate receptor) did it give?
A: The inhibition at 1 µM was 76%.

Q: What about the inhibition at 10 µM [1] of the same compound?
A: The inhibition at 10 µM was 62%.

Q: What about the inhibition at 10 µM [2] of the same compound?
A: Its inhibition at 10 µM is 102%.

Q: Which inhibition at 1 µM (human μ opiate receptor) does the source give for `O=C(COC1CCN(S(=O)(=O)c2c(Cl)cc(Cl)cc2Cl)C1)NCC1CCC(C(c2ccccc2)N2CCCC2)CC1` (stereo not drawn) [Example 644, N-((4-(phenyl(pyrrolidin-1-yl)methyl)cyclohexyl)methyl)-2-(1-(2,4,6-trichlorophenylsulfonyl)pyrrolidin-3-yloxy)acetamide] here?
A: Its inhibition at 1 µM is 59%.

Q: And the inhibition at 10 µM [1]?
A: Its inhibition at 10 µM is 52%.

Q: What about the inhibition at 10 µM [2] of the same compound?
A: The inhibition at 10 µM was 73%.

Q: For `COc1cc(C)c(S(=O)(=O)N2CCC(OCC(=O)NCC3CCC(C(c4ccccc4)N4CCCC4)CC3)C2)c(C)c1` (stereo not drawn) [Example 645, 2-(1-(4-methoxy-2,6-dimethylphenylsulfonyl)pyrrolidin-3-yloxy)-N-((4-(phenyl(pyrrolidin-1-yl)methyl)cyclohexyl)methyl)acetamide], which inhibition at 1 µM (human μ opiate receptor) is on record?
A: Its inhibition at 1 µM is 38%.

Q: And the inhibition at 10 µM [1]?
A: The inhibition at 10 µM was 100%.

Q: And the inhibition at 10 µM [2]?
A: Its inhibition at 10 µM is 101%.

Q: Which inhibition at 1 µM (human μ opiate receptor) does the source give for `CN(CCOCC(=O)NCC1CCC(C(c2ccccc2)N2CCCC2)CC1)S(=O)(=O)c1c(Cl)cc(C(F)(F)F)cc1Cl` (stereo not drawn) [Example 646, 2-(2-(2,6-dichloro-N-methyl-4-(trifluoromethyl)phenylsulfonamido)ethoxy)-N-((4-(phenyl(pyrrolidin-1-yl)methyl)cyclohexyl)methyl)acetamide] here?
A: The inhibition at 1 µM was 49%.

Q: What about the inhibition at 10 µM [1] of the same compound?
A: The inhibition at 10 µM was 15%.

Q: And the inhibition at 10 µM [2]?
A: Its inhibition at 10 µM is 60%.

Q: Which inhibition at 1 µM (human μ opiate receptor) does the source give for `COc1cc(C)c(S(=O)(=O)N2CCCC(OCC(=O)NC3CCC(C(c4ccccc4)N4CCCC4)CC3)C2)c(C)c1` (stereo not drawn) [Example 647, 2-(1-(4-methoxy-2,6-dimethylphenylsulfonyl)piperidin-3-yloxy)-N-(4-(phenyl(pyrrolidin-1-yl)methyl)cyclohexyl)acetamide] here?
A: The inhibition at 1 µM was 49%.

Q: What about the inhibition at 10 µM [1] of the same compound?
A: The inhibition at 10 µM was 94%.

Q: What about the inhibition at 10 µM [2] of the same compound?
A: The inhibition at 10 µM was 92%.

Q: For `COc1cc(C)c(S(=O)(=O)N2CCCC(OCC(=O)NCC3CCC(C(c4ccccc4)N4CCCC4)CC3)C2)c(C)c1` (stereo not drawn) [Example 648, 2-(1-(4-methoxy-2,6-dimethylphenylsulfonyl)piperidin-3-yloxy)-N-((4-(phenyl(pyrrolidin-1-yl)methyl)cyclohexyl)methyl)acetamide], which inhibition at 1 µM (human μ opiate receptor) is on record?
A: The inhibition at 1 µM was 95%.

Q: What about the inhibition at 10 µM [1] of the same compound?
A: Its inhibition at 10 µM is 98%.

Q: And the inhibition at 10 µM [2]?
A: Its inhibition at 10 µM is 95%.

Q: For `COc1cc(C)c(S(=O)(=O)N2CCCC2COCC(=O)NCC2CCC(C(c3ccccc3)N3CCCC3)CC2)c(C)c1` (stereo not drawn) [Example 649, 2-((1-(4-methoxy-2,6-dimethylphenylsulfonyl)pyrrolidin-2-yl)methoxy)-N-((4-(phenyl(pyrrolidin-1-yl)methyl)cyclohexyl)methyl)acetamide], which inhibition at 1 µM (human μ opiate receptor) is on record?
A: Its inhibition at 1 µM is 67%.

Q: And the inhibition at 10 µM [1]?
A: Its inhibition at 10 µM is 106%.

Q: And the inhibition at 10 µM [2]?
A: Its inhibition at 10 µM is 105%.

Q: What does the source list for `O=C(COCC1CCCN1S(=O)(=O)c1c(Cl)cc(Cl)cc1Cl)NC1CCC(C(c2ccccc2)N2CCCC2)CC1` (stereo not drawn) [Example 650, N-(4-(phenyl(pyrrolidin-1-yl)methyl)cyclohexyl)-2-((1-(2,4,6-trichlorophenylsulfonyl)pyrrolidin-2-yl)methoxy)acetamide]?
A: inhibition at 1 µM (human μ opiate receptor): 92%; inhibition at 10 µM [1]: 99%; inhibition at 10 µM [2]: 96%

Q: `O=C(COCC1CCCN1S(=O)(=O)c1c(Cl)cc(Cl)cc1Cl)NCC1CCC(C(c2ccccc2)N2CCCC2)CC1` (stereo not drawn) [Example 651, N-((4-(phenyl(pyrrolidin-1-yl)methyl)cyclohexyl)methyl)-2-((1-(2,4,6-trichlorophenylsulfonyl)pyrrolidin-2-yl)methoxy)acetamide] was tested. Which inhibition at 1 µM (human μ opiate receptor) did it give?
A: Its inhibition at 1 µM is 83%.

Q: And the inhibition at 10 µM [1]?
A: The inhibition at 10 µM was 105%.

Q: What about the inhibition at 10 µM [2] of the same compound?
A: The inhibition at 10 µM was 103%.

Q: Which inhibition at 1 µM (human μ opiate receptor) does the source give for `COc1cc(C)c(S(=O)(=O)N2CCCCC2COCC(=O)NC2CCC(C(c3ccccc3)N3CCCC3)CC2)c(C)c1` (stereo not drawn) [Example 652, 2-((1-(4-methoxy-2,6-dimethylphenylsulfonyl)piperidin-2-yl)methoxy)-N-(4-(phenyl(pyrrolidin-1-yl)methyl)cyclohexyl)acetamide] here?
A: Its inhibition at 1 µM is 70%.

Q: And the inhibition at 10 µM [1]?
A: The inhibition at 10 µM was 105%.

Q: What about the inhibition at 10 µM [2] of the same compound?
A: The inhibition at 10 µM was 101%.

Q: Which results are given for `O=C(COCC1CCCCN1S(=O)(=O)c1c(Cl)cc(Cl)cc1Cl)NC1CCC(C(c2ccccc2)N2CCCC2)CC1` (stereo not drawn) [Example 653, N-(4-(phenyl(pyrrolidin-1-yl)methyl)cyclohexyl)-2-((1-(2,4,6-trichlorophenylsulfonyl)piperidin-2-yl)methoxy)acetamide]?
A: inhibition at 1 µM (human μ opiate receptor): 94%; inhibition at 10 µM [1]: 95%; inhibition at 10 µM [2]: 101%

Q: Which inhibition at 1 µM (human μ opiate receptor) does the source give for `COc1cc(C)c(S(=O)(=O)N2CCCC(COCC(=O)NC3CCC(C(c4ccccc4)N4CCCC4)CC3)C2)c(C)c1` (stereo not drawn) [Example 654, 2-((1-(4-methoxy-2,6-dimethylphenylsulfonyl)piperidin-3-yl)methoxy)-N-(4-(phenyl(pyrrolidin-1-yl)methyl)cyclohexyl)acetamide] here?
A: Its inhibition at 1 µM is 53%.

Q: And the inhibition at 10 µM [1]?
A: The inhibition at 10 µM was 46%.

Q: What about the inhibition at 10 µM [2] of the same compound?
A: The inhibition at 10 µM was 80%.

Q: With `COc1cc(C)c(S(=O)(=O)N2CCCC(COCC(=O)NCC3CCC(C(c4ccccc4)N4CCCC4)CC3)C2)c(C)c1` (stereo not drawn) [Example 655, 2-((1-(4-methoxy-2,6-dimethylphenylsulfonyl)piperidin-3-yl)methoxy)-N-((4-(phenyl(pyrrolidin-1-yl)methyl)cyclohexyl)methyl)acetamide] as the compound, how does the inhibition at 1 µM (human μ opiate receptor) read?
A: Its inhibition at 1 µM is 38%.

Q: And the inhibition at 10 µM [1]?
A: The inhibition at 10 µM was 74%.

Q: And the inhibition at 10 µM [2]?
A: The inhibition at 10 µM was 71%.

Q: What does the source list for `O=C(COC1CCCN(S(=O)(=O)c2c(Cl)cc(Cl)cc2Cl)C1)NCC1CCC(C(c2ccccc2)N2CCCC2)CC1` (stereo not drawn) [Example 656, N-((4-(phenyl(pyrrolidin-1-yl)methyl)cyclohexyl)methyl)-2-(1-(2,4,6-trichlorophenylsulfonyl)piperidin-3-yloxy)acetamide]?
A: inhibition at 1 µM (human μ opiate receptor): 89%; inhibition at 10 µM [1]: 42%; inhibition at 10 µM [2]: 76%

Q: With `COc1cc(C)c(S(=O)(=O)N2CCCCC2COCC(=O)NCC2CCC(C(c3ccccc3)N3CCCC3)CC2)c(C)c1` (stereo not drawn) [Example 657, 2-((1-(4-methoxy-2,6-dimethylphenylsulfonyl)piperidin-2-yl)methoxy)-N-((4-(phenyl(pyrrolidin-1-yl)methyl)cyclohexyl)methyl)acetamide] as the compound, how does the inhibition at 1 µM (human μ opiate receptor) read?
A: The inhibition at 1 µM was 84%.

Q: What about the inhibition at 10 µM [1] of the same compound?
A: Its inhibition at 10 µM is 105%.

Q: And the inhibition at 10 µM [2]?
A: Its inhibition at 10 µM is 104%.

Q: `O=C(COCC1CCCCN1S(=O)(=O)c1c(Cl)cc(Cl)cc1Cl)NCC1CCC(C(c2ccccc2)N2CCCC2)CC1` (stereo not drawn) [Example 658, N-((4-(phenyl(pyrrolidin-1-yl)methyl)cyclohexyl)methyl)-2-((1-(2,4,6-trichlorophenylsulfonyl)piperidin-2-yl)methoxy)acetamide] was tested. Which inhibition at 1 µM (human μ opiate receptor) did it give?
A: Its inhibition at 1 µM is 88%.

Q: What about the inhibition at 10 µM [1] of the same compound?
A: The inhibition at 10 µM was 105%.

Q: And the inhibition at 10 µM [2]?
A: Its inhibition at 10 µM is 104%.

Q: `O=C(COCC1CCCN(S(=O)(=O)c2c(Cl)cc(Cl)cc2Cl)C1)NCC1CCC(C(c2ccccc2)N2CCCC2)CC1` (stereo not drawn) [Example 659, N-((4-(phenyl(pyrrolidin-1-yl)methyl)cyclohexyl)methyl)-2-((1-(2,4,6-trichlorophenylsulfonyl)piperidin-3-yl)methoxy)acetamide] was tested. Which inhibition at 1 µM (human μ opiate receptor) did it give?
A: Its inhibition at 1 µM is 79%.

Q: What about the inhibition at 10 µM [1] of the same compound?
A: Its inhibition at 10 µM is 100%.

Q: And the inhibition at 10 µM [2]?
A: The inhibition at 10 µM was 50%.
